Laboratory results from patent US20230416247A1, “DRUG-LIKE MOLECULES AND METHODS FOR THE THERAPEUTIC TARGETING OF MICRORNA-21” (University of Washington, priority 2020, published 2023).
pKd: −log10 of the molar value. Like-named read-outs stand apart in the source and are kept apart here.

Legend:
[1] = target: pre-miR21; test: 1D 1H NMR ligand-detect titration of compounds with pre-miR21 RNA; format: binding, human
Procedure: FIG. 6 compares the binding of representative compounds of the invention (see FIG. 5) to pre-miR21. 1D ^1H NMR ligand-detect titrations of compounds, generated by titrating in increasing concentrations of RNA into a solution containing 100 μM of the relevant compound in buffer containing 50 mM deuterated Tris at pH 6.5, as well as 250 mM NaCl, 50 mM KCl and 2 mM MgCl2. As increasing amounts of compounds are bound to the RNA in the course of the titration, the line width of the NMR signal increases, and the NMR peak height decreases. The fraction of compound bound can be calculated from the decrease in […] relative to an internal standard. Saturation of the curves to a value of 1 indicates the predominant presence of a single site with high binding affinity. Approximate binding constants can be calculated by fitting the data points to a binding isotherm. For reference, the data fit for compound −0052 corresponds to a Kd=200 nM, while compound −0045 corresponds to a Kd=600 nM.
The compounds show a strong pre-miR21 binding capacity.
RNA Transcription. All RNAs for ligand screening and structural or biochemical work were prepared in house using in vitro transcription on a large scale (typically 10 mL). RNA transcription and purification protocols used purified DNA oligonucleotide templates (IDT) and T7 RNA polymerase. Briefly, 1 mL of 8 μM TOP DNA (5′-CTATAGTGAGTCGTATTA-3′ (SEQ ID NO: 1)), corresponding to the phage T7 RNA polymerase promoter region, was annealed to 80 μL of 100 μM template sequences with 13 mM MgCl2, heated to 95° C. for […] then allowed to anneal to room temperature over 20 min. The annealing mixture was incubated with 5 mM of each of the four NTPs (ATP, GTP, UTP and CTP, from Sigma), transcription buffer, 8% PEG-8000 and 35 mM magnesium chloride with 0.4 mg/mL T7 RNA polymerase expressed and purified using established methods. All RNA samples are purified from crude transcriptions by 20% denaturing polyacrylamide gel electrophoresis (PAGE), electroeluted and concentrated by ethanol precipitation. The samples are re-dissolved in 12 mL of high salt wash (700 mM NaCl, 200 mM KCl, in 10 mM potassium phosphate at pH 6.5, with 10 μM EDTA to chelate any divalent ions), concentrated using Centriprep conical concentrators ([…] MWC, Millipore). The RNA was then slowly exchanged into low salt storage buffer (10 mM potassium phosphate at pH 6.5, with 10 mM NaCl and 10 μM EDTA). Prior to NMR experiments, all RNA samples were finally desalted using NAP-10 gravity columns, lyophilized and re-dissolved in ‘screening buffer’ or ‘structure buffer’ (see below), then annealed by heating for 4 min to 90° C. and snap cooling at −20° C.

[2] = system: mature miR-10b in AGS cells; test: qRT-PCR of mature miR-10b in AGS cells; format: cell-based, human; conditions: 10 nmoles, 48 hours, relative to DMSO control
Procedure: FIGS. 14A-14D compare levels of mature miR-10b and pre-miR-10b measured in gastric adenocarcinoma (AGS) (FIGS. 14A and 14B, respectively) and pancreatic cancer cell line (ASPC 1) (FIGS. 14C and 14D, respectively), normalized to internal controls (U6 or U8 snRNA), in the presence of 10 nmoles of palbociclib (a negative control not expected to directly affect miRNA levels) and compounds −0045 and −0052, 48 hours after incubation, relative to DMSO control, and measured by standard qRT-PCR. We notice that levels of pre-miR-10b are very low in both cell lines, rendering the data very uncertain. Statistically significant changes are labeled with asterisks.
In order to investigate whether inhibition was specific to miR-21, levels of mature miR-10b and pre-miR-10b were examined in the same cell lines (FIGS. 14A-14D); this is another oncogenic microRNA implicated in metastasis. […]
(§1) Quantitative real time PCR analysis. […] RNA concentration was assessed with the NanoDrop ND-1000 spectrophotometer (ThermoFisher Scientific). […] Expression of miR-21 was assessed utilizing the TaqMan microRNA assay (Applied Biosystems). […] All experiments were performed in triplicate, with all samples normalized to the internal controls and relative expression levels calculated using the 2^ΔΔCt method.

[3] = system: miR-16, miR-28, miR-182 in gastric (AGS) cells; test: qRT-PCR of miR-16, miR-28, miR-182 in AGS cells; format: cell-based, human; conditions: 24-72 hours post incubation, vs DMSO
Procedure: (§2) Levels of each microRNA were measured at different times post incubation (24-72 hours) by standard qRT-PCR, normalized to internal controls (U6 or U8 snRNA), in both gastric (AGC) and pancreatic (ASPC1) cell lines. Levels of the microRNA are generally the same, within experimental uncertainty, in the absence (DMSO) or presence of compound −0052 (30).
(§3) FIGS. 15A-15F show the levels of mature miR-16, miR-28, and miR-182 are not consistently affected by the compounds in both gastric (AGS) and pancreatic (ASPC1) cell lines, over multiple time scales (24-72 hours), relative to control where DMSO was added, but no compound.
(§4) Cell line maintenance. Using the Cancer Cell Line Encyclopedia (CCLE), in-house cancer cell lines were screened to identify cancer and tissue types with varying levels of miR-21 expression. Experiments were performed using the human-derived cell lines AGS (gastric cancer) and AsPC-1 (pancreatic cancer). […]
as §1

[4] = system: miR-16, miR-28, miR-182 in pancreatic (ASPC1) cells; test: qRT-PCR of miR-16, miR-28, miR-182 in ASPC1 cells; format: cell-based, human; conditions: ASPC1, 24-72 hours post incubation, vs DMSO
Procedure: as §2, §3, §4, §1

[5] = 100 μM compound, 50 mM deuterated Tris pH 6.5, 250 mM NaCl, 50 mM KCl, 2 mM MgCl2, approximate, read-out: Kd (fit of NMR titration data to binding isotherm)
[6] = estimated, FIG. 6, read-out: KD for pre-miR21

Structure (SMILES) | pKd [1, 5] | pKd [1, 6] | reduction of levels of mature miR-10b [2] | cellular levels of miR-16, miR-28, miR-182 [3] | cellular levels of miR-16, miR-28, miR-182 [4]
O=c1[nH]c(Nc2ccc(N3CCNCC3)cn2)nc2cccnc12 [Compound 25] | 6.22 | 6.22 |  |  | 
O=c1[nH]c(Nc2ccc(N3CCNCC3)cn2)nc2cnccc12 [Compound 30] | 6.70 | 6.70 | about 2 fold | does not affect cellular levels | does not affect cellular levels
